# Measurements as given in US12186283B2, “Bismuth-thiol compositions and methods of use” (Microbion Corporation, priority 2018, dated 2025).
# Tests used:
# S. aureus ATCC 29213 [1] = test: Broth microdilution MIC, ATCC QC organism (Example 12); assay type: cell-based, Staphylococcus aureus; conditions: S. aureus ATCC 29213, QC organism
# Experimental: The in vitro activity of BisEDT and two additional bismuth-thiol investigational agents (MB-2B and MB-6) was determined for isolates of Escherichia coli, Klebsiella pneumoniae, Pseudomonas aeruginosa and Acinetobacter baumannii characterized for extended-spectrum β-lactamases (ESBL) and/or carbapenem resistance. In addition, vancomycin-intermediate Staphylococcus aureus (VISA) were evaluated. The majority of the isolates tested in the current study were multidrug-resistant (MDR) as defined by resistance to at least three different antibiotic classes. Susceptibility to the investigational compounds and relevant comparators was determined by broth microdilution conducted in accordance with guidelines from the Clinical and Laboratory Standards Institute (CLSI; 2,3).
# S. aureus ATCC 29213 [2] = conditions: S. aureus ATCC 29213, QC organism; cited from earlier work
# [3] = system: vancomycin-intermediate Staphylococcus aureus (VISA); test: Broth microdilution MIC (Example 12)
# [4] = system: S. pneumoniae (pneumococci); test: Broth microdilution MIC (Example 11); assay type: cell-based, Streptococcus pneumoniae
# [5] = system: beta-hemolytic streptococci (S. pyogenes, S. agalactiae); test: Broth microdilution MIC (Example 11); assay type: cell-based, Streptococcus pyogenes, Streptococcus agalactiae
# [6] = system: S. pneumoniae (pneumococci); conditions: S. pneumoniae MMX 6837 (ATCC 49619); cited from earlier work
# [7] = Staphylococcus aureus NRS 1 (hVISA)
# [8] = Staphylococcus aureus NRS 24 (hVISA)
Molecule,MIC (S. aureus ATCC 29213 [1]) [µg/mL],"MIC, QC range (S. aureus ATCC 29213 [2])","MIC [3, 7] [µg/mL]",MIC ([3]; Staphylococcus aureus NRS 2) [µg/mL],MIC ([3]; Staphylococcus aureus NRS 3) [µg/mL],MIC ([3]; Staphylococcus aureus NRS 4) [µg/mL],MIC ([3]; Staphylococcus aureus NRS 13) [µg/mL],MIC ([3]; Staphylococcus aureus NRS 18) [µg/mL],MIC ([3]; Staphylococcus aureus NRS 22) [µg/mL],"MIC [3, 8] [µg/mL]",MIC ([3]; Staphylococcus aureus NRS 27) [µg/mL],other results
CN[C@H](CC(C)C)C(=O)N[C@H]1C(=O)N[C@@H](CC(N)=O)C(=O)N[C@H]2C(=O)N[C@H]3C(=O)N[C@H](C(=O)N[C@H](C(=O)O)c4cc(O)cc(O)c4-c4cc3ccc4O)[C@H](O)c3ccc(c(Cl)c3)Oc3cc2cc(c3O[C@@H]2O[C@H](CO)[C@@H](O)[C@H](O)[C@H]2O[C@H]2C[C@](C)(N)[C@H](O)[C@H](C)O2)Oc2ccc(cc2Cl)[C@H]1O [VAN],0.5,(0.5-2) μg/mL,4,0.5,8,4,2,4,4,2,2,–
CC(=O)NC[C@H]1CN(c2ccc(N3CCOCC3)c(F)c2)C(=O)O1 [LZD],4,(1-4) μg/mL,1,4,1,1,2,1,1,2,2,–
Penicillin,–,–,–,–,–,–,–,–,–,–,–,"MIC ([4]; S. pneumoniae MMX 880, Lev^R SXT^R CC^R Ery^R Pen^R): 2 µg/mL; MIC ([4]; S. pneumoniae MMX 937, Mem^R SXT^R CC^R Ery^R Pen^R): 4 µg/mL; MIC ([4]; S. pneumoniae MMX 3959, CC^R Ery^R): 0.12 µg/mL; MIC ([4]; S. pneumoniae MMX 5440, Mem^R SXT^R CC^R Ery^R Pen^R): 4 µg/mL; MIC ([4]; S. pneumoniae MMX 5445, Mem^R SXT^R CC^R Ery^R Pen^R): 4 µg/mL; MIC ([4]; S. pneumoniae MMX 6837 (ATCC 49619), QC): 0.25 µg/mL; MIC ([4]; S. pneumoniae MMX 8133, Mem^R SXT^R CC^R Ery^R Pen^R): 4 µg/mL; MIC ([5]; S. agalactiae MMX 3741, ERY^R CC^R): 0.03 µg/mL; MIC ([5]; S. agalactiae MMX 3743, ERY^R CC^R): 0.06 µg/mL; MIC ([5]; S. agalactiae MMX 4077, ERY^R CC^R): 0.06 µg/mL; MIC ([5]; S. agalactiae MMX 4079, ERY^R CC^R Pen^R MEM^R): 2 µg/mL; MIC ([5]; S. agalactiae MMX 4086, ERY^R CC^R): 0.06 µg/mL; MIC ([5]; S. pyogenes MMX 3068, Ery^R): ≤0.008 µg/mL; MIC ([5]; S. pyogenes MMX 3820, ERY^R CLI^R): ≤0.008 µg/mL; MIC ([5]; S. pyogenes MMX 3919, ERY^R): ≤0.008 µg/mL; MIC ([5]; S. pyogenes MMX 3929, ERY^R CC^R): ≤0.008 µg/mL; MIC ([5]; S. pyogenes MMX 5091, ERY^R CC^R): ≤0.008 µg/mL; MIC, CLSI QC range [6]: (0.25-1) μg/mL"
